Assay [1] has as its system TNBS-Induced Chronic Colonic Allodynia. Briefly: TNBS-induced chronic colonic allodynia in rats (colonic distension threshold). It counts as in vivo, Male Sprague-Dawley rats. The conditions noted are these: rat, in vivo. As for the experimental part: GABA analogs were evaluated in rats suffering from chronic visceral allodynia induced by trinitrobenzene sulfonic acid (TNBS).
In humans, digestive disorders are often associated with visceral pain. In these pathologies, the visceral pain threshold is decreased, indicating a visceral hypersensitivity. Consequently, the following study was designed to evaluate the effect of injection of TNBS into the colon on visceral pain threshold in an experimental model of colonic distension.
(§1) Male Sprague-Dawley rats weighing 340 to 400 g were used in the study. The animals were housed three per cage in a regulated environment (20 ± 1°C, 50 ± 5% humidity, with light 8:00 AM to 8:00 PM). Under anethesia (ketamine 80 mg/kg i.p.; acepromazin 12 mg/kg i.p.), TNBS (50 mg/kg), or saline (1.5 mL/kg) was injected into the proximal colon (1 cm from the cecum). After the surgery, animals were individually housed in the regulated environment.
(§2) A balloon catheter (5-6 cm length) was inserted through the anus into the colon and kept in position (tip of balloon 5 cm from the anus) by taping the catheter to the base of the tail. The balloon was progressively inflated by step of 5 mm Hg, from 0 to 75 mm Hg, each step of inflation lasting 30 seconds. Each cycle of colonic distension was controlled by a standard barostat. The threshold corresponds to the pressure which produced the first abdominal contraction, at which time the cycle of distension was discontinued. To determine the colonic threshold, four cycles of distension were performed on the same animal.
In a second series, a group of eight rats treated with TNBS were subjected to a colonic distension session.
In a third series, a group of eight rats treated with TNBS received a subcutaneous (sc) injection of gabapentin or CI-1008 30 minutes prior to initiation of the colonic distension cycle.
(§3) All test compounds were dissolved in saline except TNBS. TNBS was dissolved in EtOH 30% (w/v). Subcutaneous injection of vehicle was given in a volume of […].
(§4) Statistical significance between each group was determined using a one-way ANOVA followed by Student's unpaired t-test. Differences were considered statistically significant at p <0.05.
Pain threshold (pressure of distension inducing the first abdominal contraction) after distal colonic distension was determined at Day 7 in two groups of awake rats: control animals and TNBS-treated animals. […] Inflammatory parameters (colon weight, area of hyperemia and necrosis and colonic myeloperoxidase content) were measured in the proximal colon at Day 7 after TNBS treatment.
Gabapentin (100, 300, and 500 mg/kg sc) and CI-1008 (30, 60, 100, and 200 mg/kg sc) were administered 30 minutes before colonic distension and measurement of the inflammatory parameters.

The test system of assay [2] is Colonic Threshold in Normal Rats. Put plainly: Colonic distension pain threshold in normal rats. The conditions noted are these: rat, in vivo. It counts as in vivo, Male Sprague-Dawley rats. As for the experimental part: as §1, §2
In a first series of experiments, a group of eight rats treated with saline were subjected to a colonic distension session.
as §3, §4

“And” between values parts separate entries of the source, which are not always exact repeats. Equal values may be shown once.

Regarding `CN1CC[C@]23c4c5ccc(O)c4O[C@H]2[C@@H](O)C=C[C@H]3[C@H]1C5` [Morphine], in assay [1], the “Colonic Threshold” value is 34.22 mm Hg and 46.09 mm Hg and 64.84 mm Hg; the “TNBS-induced decrease in pain threshold after colonic distension (in words)” value is “completely suppressed”. Besides, the “colonic pain threshold in normal conditions (control animals), in words” value in assay [2] was “significantly increased”.

The record behind these values is patent publication EP0974351A2, “Medicament for preventing and treating gastrointestinal damage” (JOUVEINAL, priority 1998, dated 2000).
